Earlier results, collected in paper PMC6361557 (Cancer Science, 2019).

Tested on: PSMA
Details: LNCaP cells

## ^68Ga‐PSMA‐11
  IC50: 24.3 nM
